Measurements: BigSolDB 2.1

O=C(N[C@H](Cc1c[nH]c2ccccc12)C(=O)O)OCC1c2ccccc2-c2ccccc21
Conditions	solubility (mole fraction)
in acetone, 283.15 K	0.0377
in acetone, 288.15 K	0.0387
in acetone, 293.15 K	0.0407
in acetone, 298.15 K	0.0432
in acetone, 303.15 K	0.0456
in acetone, 308.15 K	0.0483
in acetone, 313.15 K	0.0533
in acetone, 318.15 K	0.059
in acetone, 323.15 K	0.0651
in acetonitrile, 283.15 K	0.00128
in acetonitrile, 288.15 K	0.0015
in acetonitrile, 293.15 K	0.00164
in acetonitrile, 298.15 K	0.00197
in acetonitrile, 303.15 K	0.00229
in acetonitrile, 308.15 K	0.00296
in acetonitrile, 313.15 K	0.00382
in acetonitrile, 318.15 K	0.00498
in acetonitrile, 323.15 K	0.0067
in ethanol, 283.15 K	0.00439
in ethanol, 288.15 K	0.00448
in ethanol, 293.15 K	0.00492
in ethanol, 298.15 K	0.00538
in ethanol, 303.15 K	0.00604
in ethanol, 308.15 K	0.00688
in ethanol, 313.15 K	0.00763
in ethanol, 318.15 K	0.00893
in ethanol, 323.15 K	0.0103
in ethyl acetate, 283.15 K	0.00673
in ethyl acetate, 288.15 K	0.00688
in ethyl acetate, 293.15 K	0.00733
in ethyl acetate, 298.15 K	0.0079
in ethyl acetate, 303.15 K	0.00866
in ethyl acetate, 308.15 K	0.00931
in ethyl acetate, 313.15 K	0.0101
in ethyl acetate, 318.15 K	0.0111
in ethyl acetate, 323.15 K	0.0123
in isobutanol, 283.15 K	0.00112
in isobutanol, 288.15 K	0.00118
in isobutanol, 293.15 K	0.00147
in isobutanol, 298.15 K	0.0019
in isobutanol, 303.15 K	0.00222
in isobutanol, 308.15 K	0.00244
in isobutanol, 313.15 K	0.00294
in isobutanol, 318.15 K	0.00363
in isobutanol, 323.15 K	0.00458
in isopropanol, 283.15 K	0.00176
in isopropanol, 288.15 K	0.00206
in isopropanol, 293.15 K	0.00244
in isopropanol, 298.15 K	0.00309
in isopropanol, 303.15 K	0.00365
in isopropanol, 308.15 K	0.00469
in isopropanol, 313.15 K	0.00545
in isopropanol, 318.15 K	0.00642
in isopropanol, 323.15 K	0.00814
in methanol, 283.15 K	0.00434
in methanol, 283.16 K	0.0044
in methanol, 283.17 K	0.00446
in methanol, 283.18 K	0.00452
in methanol, 283.19 K	0.00458
in methanol, 288.15 K	0.00437
in methanol, 288.16 K	0.00443
in methanol, 288.17 K	0.00449
in methanol, 288.18 K	0.00455
in methyl acetate, 283.15 K	0.00812
in methyl acetate, 288.15 K	0.00881
in methyl acetate, 293.15 K	0.0097
in methyl acetate, 298.15 K	0.0102
in methyl acetate, 303.15 K	0.0112
in methyl acetate, 308.15 K	0.0126
in methyl acetate, 313.15 K	0.014
in methyl acetate, 318.15 K	0.0159
in methyl acetate, 323.15 K	0.0174
in n-butanol, 283.15 K	0.00247
in n-butanol, 288.15 K	0.00264
in n-butanol, 293.15 K	0.00297
in n-butanol, 298.15 K	0.0034
in n-butanol, 303.15 K	0.00417
in n-butanol, 308.15 K	0.0046
in n-butanol, 313.15 K	0.00552
in n-butanol, 318.15 K	0.00656
in n-butanol, 323.15 K	0.00807
in n-butyl acetate, 283.15 K	0.00381
in n-butyl acetate, 288.15 K	0.00396
in n-butyl acetate, 293.15 K	0.0042
in n-butyl acetate, 298.15 K	0.00449
in n-butyl acetate, 303.15 K	0.00481
in n-butyl acetate, 308.15 K	0.00533
in n-butyl acetate, 313.15 K	0.00581
in n-butyl acetate, 318.15 K	0.00636
in n-butyl acetate, 323.15 K	0.00743
in n-propanol, 283.15 K	0.00255
in n-propanol, 288.15 K	0.003
in n-propanol, 293.15 K	0.00336
in n-propanol, 298.15 K	0.00378
in n-propanol, 303.15 K	0.00422
in n-propanol, 308.15 K	0.0049
in n-propanol, 313.15 K	0.00587
in n-propanol, 318.15 K	0.00683
in n-propanol, 323.15 K	0.00825
in n-propyl acetate, 283.15 K	0.00437
in n-propyl acetate, 288.15 K	0.00461
in n-propyl acetate, 293.15 K	0.00506
in n-propyl acetate, 298.15 K	0.0055
in n-propyl acetate, 303.15 K	0.00595
in n-propyl acetate, 308.15 K	0.00658
in n-propyl acetate, 313.15 K	0.0071
in n-propyl acetate, 318.15 K	0.00793
in n-propyl acetate, 323.15 K	0.00903
